Laboratory results from patent publication US20240209022A1, “NOVEL PEPTIDE HAVING ANTI-INFLAMMATORY AND TISSUE REGENERATIVE ACTIONS” (KOREA RESEARCH INSTITUTE OF BIOSCIENCE AND BIOTECHNOLOGY, priority 2020, published 2024).

B1: Amuc_1409: SEQ ID NO: 15, functional fragment obtained by eliminating the leader sequence from SEQ ID NO: 14; protein derived from Akkermansia muciniphila (protein)
chain: IPESSVPAAAVSSIKGAYPNAGPIEWDSEMHGMERIYEAEFRINGFQFDVKIAPDGKIVRIKEEIAASSLPEAVRASVLKRYPGCRIKEAEKITEGELVRYKVEVADSRDDYDVLIAPDGNILHVDR
modifications: Amuc_1409_fragment
notes: protein derived from Akkermansia muciniphila

Columns and labels:
[1] = tested on: LPS-induced cognitive and memory disorder mice; assay: Novel object recognition test in LPS-induced cognitive/memory disorder model; format: in vivo, C57BL/6J mice; settings: oral; LPS 250 μg/kg/day for 7 days; vs control group
Description: LPS was intraperitoneally injected to C57BL/6J male mice at 250 μg/kg/day daily for 7 days to induce cognitive and memory disorders. Amuc_1409, a protein derived from Akkermansia muciniphila, was orally administered to the mice by 5 μg daily from one week before LPS administration until the cognitive and memory test was performed. PEP002, PEP003, PEP004, or PEP005 was dissolved in PBS buffer at a concentration of 2.4 μM and then orally administered to the mice by 150 μL per animal daily at the same time once a day from 3 days before LPS administration until the cognitive and memory test was performed. To the control group (vehicle), PBS was orally administered in the same volume.
In order to test the effect of improving cognitive function in mice with cognitive and memory disorder administered with Amuc_1409 or PEP002, PEP003, PEP004, or PEP005, a novel object recognition test was performed. When the object seen 24 hours ago and a novel object were provided, the exploration time and the number of explorations for the novel object were measured to test cognition and memory.

[2] = tested on: DSS-induced enteritis model; assay: DSS enteritis (inflammatory bowel disease) model; format: in vivo, C57BL/6J mice; settings: vs PBS buffer group; for Il-6 gene expression in distal colon: RT-qPCR; for length of the colon: oral 3 days in recovery period; for body weight (weight gain rate): recovery period after DSS, oral 6 days
Description: In order to confirm the efficacy of the peptides of the present invention for preventing and treating inflammatory bowel disease, an experiment was conducted using an animal model of enteritis. As the enteritis model, enteritis was induced by dissolving DSS in drinking water at a concentration of 1.2% and then administered to 10-week-old specific pathogen free (SPF) male C57BL/6J mice through the drinking water for 6 days, and then the drinking water was replaced with water to give a recovery period. During the recovery period, PEP002, PEP003, PEP004, or PEP005 was dissolved in PBS buffer at a concentration of 4.3 μM and then orally administered to the mice by 150 μL per animal once a day at the same time, and the same volume of PBS buffer was orally administered to the control group. During the recovery period, oral administration was performed 6 times for 6 days to examine the rate of increase in body weight due to recovery from enteritis. In addition, in order to examine the length of the colon, the degree of inflammation in the colon, and the degree of recovery of the colon tissue, the test was terminated after oral administration 3 times for 3 days. At the end of the experiment, the length of the colon was measured, a part of the distal colon was rapidly cooled in liquid nitrogen, and RNA was extracted using Trizol. Reverse transcriptase was added to the obtained RNA and reacted to synthesize cDNA, and SYBR Green and primers were added to perform quantitative real-time PCR (RT-qPCR), and then the level of Il-6 gene expression was quantified. In addition, a part of the distal colon was fixed in 10% NBF at room temperature for 24 hours or more, and then embedded in paraffin to prepare a 5 μm-thick section, and the section was stained with hematoxylin and eosin (H&E). The H&E-stained tissue sections were observed under an optical microscope and the histopathological degree of enteritis was evaluated using a histologic colitis scoring system (Table 4). [table]

naturally aged mice = assay: NORT and Y-maze alteration test in naturally aged mice; format: in vivo, C57BL6/J mice; settings: oral; for spontaneous alteration, Y-maze alteration test: 0.2 μg daily 5 days a week for 8 weeks, vs PBS buffer
Description: An experiment was conducted to verify the efficacy of the peptides of the present invention in an animal model of cognitive/memory disorder due to natural aging.
Amuc_1409 was orally administered to 16.5-month-old male mice by 4.5 μg daily 5 days a week for 8 weeks, and PEP002, PEP003, PEP004, or PEP005 was dissolved in PBS buffer at a concentration of 2.4 μM and then orally administered to 16-month-old male mice by 150 μL per animal at the same time once a day for 3 weeks. To the control group (vehicle), PBS was orally administered in the same volume.
In the case of the groups administered with the novel tetrapeptides and tripeptides (PEP006 to PEP013), each peptide was orally administered to 19-month-old female C57BL6/J mice by 0.2 μg daily 5 days a week for 8 weeks. At this time, the peptide was dissolved in PBS buffer and orally administered to the mice at 0.2 μg/150 μL per animal at the same time once a day. To the vehicle group, PBS was orally administered in the same volume. At this time, 4-month-old female C57BL6/J mice were used as a young control group.
A novel object recognition test (NORT) was performed to test the effect of improving cognitive function in naturally aged mice. When the object seen 24 hours ago and a novel object were provided, the exploration time and the number of explorations for the novel object were measured to test cognition and memory. In addition, a Y-maze alteration test was performed to confirm the effect of enhancing spatial perception and memory. In the Y-maze alteration test, spontaneous alteration (%) was evaluated by measuring the order of entering each Y-shaped maze (A, B and C). […] The spontaneous alteration was calculated and expressed as the total number of alterations/(total number of entries−2)×100.

small intestine organoid = assay: Small intestine organoid sprouting; format: cell-based, C57BL/6J mice; settings: 16 nM on days 0, 2, 4; day 5 of culture; vs PBS buffer
Description: In order to establish a small intestine organoid model, the small intestine of 15-week-old male C57BL/6J mice was cut longitudinally from the proximal end to the distal end, and cut transversely into about 5 mm long pieces. The small intestine tissue thus obtained was washed with refrigerated PBS containing 1% penicillin. Thereafter, the washed small intestine tissue was treated with dissociation buffer and filtered through a cell strainer to isolate crypts. The isolated crypt was cultured in Matrigel and Organoid Growth Medium (Intesticult™) mixed at a ratio of 1:1, Matrigel was solidified at 37° C. for 20 minutes in a 12 well plate, and then medium (500 μL/well) was added. The medium was replaced after 4 days, and subculture was performed on day 7.
For novel peptide screening, organoids 3D cultured in medium and Matrigel support were dispensed into 3 wells per group using a 12-well plate and 50 organoids per well. On days 0, 2, and 4 of culture, the organoids were treated with novel tetrapeptides PEP006, PEP007, PEP008, PEP009, and PEP010 and novel tripeptides PEP011, PEP012, and PEP013 at a concentration of 16 nM as described above, and the number of lobes of sprouted organoids on day 5 of culture was examined and analyzed for comparison. The control group was treated with PBS buffer in the same manner.

Row | Molecule | memory and cognitive function, novel object recognition test [1] | Il-6 gene expression in distal colon [2] | length of the colon [2] | body weight (weight gain rate) [2] | degree of crypt damage (H&E) [2] | degree or extent of intestinal inflammation (H&E) [2] | number of lobes of sprouted organoids (small intestine organoid) | also measured
1 | AVSSI (PEP002) | improved | significantly decreased | significantly increased | tended to increase | significantly decrease | decreased | – | –
2 | VGAY (PEP010) | – | – | – | – | – | – | significantly increased | spontaneous alteration, Y-maze alteration test (naturally aged mice): significantly improved
3 | AQS [PEP011] | – | – | – | – | – | – | significantly increased | –
4 | AIS [PEP013] | – | – | – | – | – | – | significantly increased | –
5 | GAY [PEP005] | improved | significantly decreased | significantly increased | significantly increased | significantly decrease | decreased | – | –
6 | AVS (AVSSIKGAY) [PEP004] | improved | significantly decreased | significantly increased | significantly increased | significantly decrease | decreased | – | –
7 | KGAY (PEP003) | improved | significantly decreased | tended to increase | tended to increase | significantly decrease | decreased | – | –
8 | AGAY (PEP006) | – | – | – | – | – | – | significantly increased | –
9 | AGS [PEP012] | – | – | – | – | – | – | significantly increased | –
10 | RGAY (PEP007) | – | – | – | – | – | – | significantly increased | –
11 | SGAY (PEP009) | – | – | – | – | – | – | significantly increased | –
12 | IGAY (PEP008) | – | – | – | – | – | – | significantly increased | spontaneous alteration, Y-maze alteration test (naturally aged mice): significantly improved
13 | B1 | improved | – | – | – | – | – | – | cognition and memory, novel object recognition test (naturally aged mice; naturally aged mice, vs control group): significantly improved or tended to be improved
